From patent US20080293795A1, “COMBINATION THERAPY WITH PARP INHIBITORS” (ABBOTT LABORATORIES, priority 2006, published 2008)
Like-named read-outs stand apart in the source and are kept apart here.

Columns and labels:
[1] = molecular target: T1, Recombinant Human Poly(ADP-Ribose) Polymerase (PARP) (Homo sapiens, UniProt P09874); test: PARP1 inhibition assay ([3H]-NAD+, biotinylated histone H1, FlashPlate/SPA); assay type: biochemical; details: from inhibition curves at various substrate concentrations
T1 construct: purchased Trevigen, Gaithersburg, Md; host or cells: E. coli
T1 sequence (P09874 whole entry): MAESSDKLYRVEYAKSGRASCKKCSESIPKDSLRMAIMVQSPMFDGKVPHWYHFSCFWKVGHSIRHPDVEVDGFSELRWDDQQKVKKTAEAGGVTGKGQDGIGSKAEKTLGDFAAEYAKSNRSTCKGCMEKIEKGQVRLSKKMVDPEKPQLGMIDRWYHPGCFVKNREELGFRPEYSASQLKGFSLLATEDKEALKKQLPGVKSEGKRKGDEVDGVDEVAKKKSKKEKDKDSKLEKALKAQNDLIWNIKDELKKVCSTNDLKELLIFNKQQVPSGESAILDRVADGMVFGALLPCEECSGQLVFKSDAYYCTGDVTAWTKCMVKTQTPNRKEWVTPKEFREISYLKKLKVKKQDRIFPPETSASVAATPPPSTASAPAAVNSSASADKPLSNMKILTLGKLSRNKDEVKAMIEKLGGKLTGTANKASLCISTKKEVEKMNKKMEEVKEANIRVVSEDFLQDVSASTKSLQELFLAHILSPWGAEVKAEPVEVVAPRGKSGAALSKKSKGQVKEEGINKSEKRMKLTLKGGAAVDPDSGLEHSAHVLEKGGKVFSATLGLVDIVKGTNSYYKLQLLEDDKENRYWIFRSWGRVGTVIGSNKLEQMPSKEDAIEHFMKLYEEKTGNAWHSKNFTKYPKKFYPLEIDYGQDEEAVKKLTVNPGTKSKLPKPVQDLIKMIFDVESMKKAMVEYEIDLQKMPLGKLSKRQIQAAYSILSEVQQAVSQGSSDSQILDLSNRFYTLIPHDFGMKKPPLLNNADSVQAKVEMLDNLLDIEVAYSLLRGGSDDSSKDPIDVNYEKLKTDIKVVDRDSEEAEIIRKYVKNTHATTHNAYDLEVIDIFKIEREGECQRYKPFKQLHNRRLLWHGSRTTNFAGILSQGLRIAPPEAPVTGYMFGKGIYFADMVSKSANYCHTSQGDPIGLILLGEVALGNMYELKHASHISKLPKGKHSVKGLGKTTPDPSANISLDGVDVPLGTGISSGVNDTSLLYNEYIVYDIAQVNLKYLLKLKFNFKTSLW
Method: Nicotinamide[2,5′,8-3H]adenine dinucleotide and strepavidin SPA beads were purchased from Amersham Biosiences (UK) Recombinant Human Poly(ADP-Ribose) Polymerase (PARP) purified from E. coli and 6-Biotin-17-NAD^+, were purchase from Trevigen, Gaithersburg, Md. NAD^+, Histone, aminobenzamide, 3-amino benzamide and Calf Thymus DNA (dcDNA) were purchased from Sigma, St. Louis, Mo. […] Biotinylated histone H1 was prepared by treating the protein with Sulfo-NHS-LC-Biotin from Pierce Rockford, Ill. […] Streptavidin coated (FlashPlate Plus) microplates were purchased from Perkin Elmer, Boston, Mass.
PARP1 assay was conducted in PARP assay buffer containing 50 mM Tris pH 8.0, 1 mM DTT, 4 mM MgCl2. […] 170 μl of the stopped reaction mixtures were transferred to streptavidin Flash Plates, incubated for 1 hr, and counted using a TopCount microplate scintillation counter.

HCT-116 tumors = HCT-116 tumors in nude mice, combination with radiotherapy; assay type: in vivo; details: combination with radiotherapy (2 Gy/day, 10 doses) vs radiotherapy or compound alone; 6.25, 12.5 or 25 mg/kg/day i.p. OMPs 14 days; FIG. 1
Method: This study was done in nude mice bearing HCT-116 tumors in the leg. Three days (−3) prior to the beginning of radiotherapy, mice were implanted i.p with OMPs delivering A-620223 at 0, 6.25, 12.5, or 25 mg/kg/day for 14 days. Starting day 0 mice received radiation treatment (2 Gy/day) for 10 doses alone or in combination with the 3 different doses of 2-(N-propylpiperidin-4-yl)benzimidazole-4-carboxamide.

B16F10 murine melanoma = test: B16F10 murine melanoma, combination with TMZ; assay type: in vivo, C57BL/6 mice; details: A-861695 25, 12.5 or 3.1 mg/kg/day p.o. b.i.d. + TMZ 62.5 mg/kg/day p.o. q.d. X5; FIG. 2
Method: This study was done on mice with B 16F10 murine melanoma. Mice were divided into six treatment groups with 8-10 mice per group. See figure two for treatment groups. B16F10 cells were injected s.c. into C57BL/6 mice on day 0. Dosing was initiated on day one. A-861695 was administered p.o., b.i.d. on days 1-14. On days 3-7 temozolomide (TMZ) was administered p.o., q.d. (for the groups receiving both TMZ and A-861695, TMZ was given two hours after the A-861695 was administered).

[2] = test system: MX-1 breast carcinoma xenograft; test: MX-1 breast carcinoma xenograft, combination with carboplatin; assay type: in vivo, scid mice
Source text: This cell line was derived from a person with a poorly differentiated mammary carcinoma.
Data presented in FIG. 4 are mean ±S.E.M. of 8-10 mice per treatment group.

[3] = test system: MX-1 breast carcinoma xenograft; test: MX-1 breast carcinoma xenograft, combination with cisplatin; assay type: in vivo, nude mice; details: FIG. 5
Method: In this study the efficacy of A-861695 in combination with cisplatin was evaluated in the MX-1 breast carcinoma xenograft model in nude mice. Tumors were size-matched to 100 mm^3 on day 16 and PARP inhibitor therapy (p.o., b.i.d. x8) was initiated the same day. A single dose of cisplatin at 6.0 mg/kg/day was administered i.p. day 18. Data, shown in FIG. 5, are mean ±S.E.M. of 9 mice per treatment group.

[4] = test system: HSB T-cell ALL; JM1 pre-B ALL; P115 primary AML cells; test: TMZ and ABT-888 combinations in leukemia cells (FIGS. 9-11); details: differing amounts of TMZ and ABT-888
[5] = test system: DoHH-2 flank tumor xenograft; details: for efficacy at reducing the Mean Tumor Volume, alone: single agent
Method: Animals were size matched on day 15 to an approximate tumor volume of 503 mm^3.
Group mouse weights were recorded three times a week to monitor for weight loss due to toxicity or excessive tumor burden.

[6] = test system: MDA-231-LN-luc cells in the brain striatum; details: for survival to 300% tumor change endpoint: Kaplan-Meier, Logrank, FIG. 23
MX-1 flank xenograft = details: TMZ at 50 and 12.5 mg/kg/day
Source text: All mice were ear tagged. […] At various intervals following tumor cell inoculation, the individual tumor dimensions were serially measured using calibrated microcalipers and the tumor volumes calculated according to the formula V=L×W^2/2 (V:volume, L:length, W:width). Mice were humanely euthanized when the tumor volumes reached a predetermined size.

[7] = test system: PC3M-Luc human prostate carcinoma; test: Orthotopic PC3M-Luc human prostate carcinoma model (BLI); assay type: in vivo, male SCID-C.B17 mice; details: vs vehicles, p<0.01
Method: Bioluminescent PC-3M-luciferase-C6 osteolytic human prostate cancer cells, constitutively expressing luciferase (Caliper Life Sciences, Hopkinton, Mass.) were orthotopically injected into the prostates of 10-week-old male SCID-C.B17 mice (C.B-17/IcrCrl-scid-BR, Charles River Labs). Mice were housed in a facility with constant humidity, temperature and a 12-h light-dark cycle. Mice were anesthetized with intramuscular injections of ketamine (40 mg/kg) and rompum (5 mg/kg) before surgery. The surgical region was shaved and sterilized with iodine and alcohol swabs. A lower midline incision was made to access the prostate. The left lobe of the dorsal prostate was injected with 1×10^6 PC3M-Luc cells (975 photon/second/cell) in 30 μl (1:1 matrigel, Collaborative Biomedical Products, Bedford, Mass.). The peritoneal cavity was closed with 4-0 suture and skin incision was closed with clip.
In vivo bioluminescent image (BLI) was performed with an IVIS® Imaging System (Caliper Life Sciences, Hopkinton, Mass.). […] Images and measurements of bioluminescent signals were acquired and analyzed using Living Image® software (Caliper Life Sciences, Hopkinton, Mass.). Uniform region of interests (ROIs) were used across all groups and time points to achieve quantification of bioluminescent signal. […] The mice were then monitored with this system at weekly intervals. […]

[8] = Valproic acid and radiotherapy (FIG. 6)

CCCN1CCC(c2nc3cccc(C(N)=O)c3[nH]2)CC1 [2-(N-propylpiperidin-4-yl)benzimidazole-4-carboxamide]
Ki [1]: 8.6 nM | reduction of tumor size (HCT-116 tumors): significant improvement in the reduction of tumor size

CN(C)S(=O)(=O)N1CC(c2nc3c(C(N)=O)cccc3[nH]2)C1 [2-{1-[(dimethylamino)sulfonyl]azetidin-3-yl}-1H-benzimidazole-4-carboxamide]
Ki [1]: 16 nM

CN(C)S(=O)(=O)N1CCC(c2nc3c(C(N)=O)cccc3[nH]2)CC1 [2-{1-[(dimethylamino)sulfonyl]piperidin-4-yl}-1H-benzimidazole-4-carboxamide]
Ki [1]: 31.1 nM

C[C@]1(c2nc3c(C(N)=O)cccc3[nH]2)CCCN1 [ABT-888, 2-[(2R)-2-methylpyrrolidin-2-yl]-1H-benzimidazole-4-carboxamide]
potentiation of TMZ efficacy (B16F10 murine melanoma): significantly potentates the TMZ efficacy in a dose dependent manner | potentiation of carboplatin (tumor volumes) ([2]; A-861695 25 mg/kg/day s.c. OMPs 14 days + carboplatin 10 and 15 mg/kg/day): pronounced potentiation of carboplatin | potentiation of cisplatin activity [3]: pronounced potentiation of cisplatin activity | effect on toxicity of TMZ [4]: enhancement of toxicity of TMZ | blood brain barrier crossing (rat, in vivo): crosses the blood brain barrier | effect of co-administration of TMZ on plasma PK profile (tumor-bearing rats): did not alter the plasma PK profile | Observations (toxicity assessment) ([5]; Scid female mice, same dosing): None | efficacy at reducing the Mean Tumor Volume, alone [5]: no efficacy | survival to 300% tumor change endpoint [6]: profoundly improved survival compared to TMZ treatment alone | effect on toxicity of TMZ (% mean body weight loss) (MX-1 flank xenograft): did not exacerbate the toxicity of TMZ

Cn1nnc2c(C(N)=O)ncn2c1=O [TMZ, temozolomide]
efficacy after first treatment schedule (day 30) [7]: significantly better than their vehicles | Observations (toxicity assessment) ([5]; female, Scid, mouse, in vivo): Slight | efficacy at reducing the Mean Tumor Volume, alone [5]: no efficacy | survival to 300% tumor change endpoint [6]: significantly increased survival | Weight loss (Observations) ([6]; after last dose of 2nd cycle): > 10% after last | Mortality ([6]; dead/total mice): 0/11

N.N.O=C([O-])C1(C(=O)[O-])CCC1.[Pt+2] [carboplatin]
tumor inhibition as a single agent ([2]; carboplatin 5, 10, 15 mg/kg/day i.p. day 20, 24, 27, FIG. 4): dose-dependent tumor inhibition | tumor volume course, monotherapy ([2]; carboplatin monotherapy 10 mg/kg/day): only delayed tumor growth

CCCC(CCC)C(=O)O [valproic acid]
effect on radiotherapy [8]: can enhance the effects of radiotherapy
